Paper PMC5877551, “Structure-Activity Relationships of Thiazolyl Resorcinols, Potent and Selective Inhibitors of Human Tyrosinase” (International Journal of Molecular Sciences, 2018)

Tests used:
[1] = target: T1, human tyrosinase (hTyr) (Homo sapiens, UniProt P14679); test: L-Dopa oxidase activity of hTyr, dose-response profiles (MBTH assay); assay type: biochemical; design: A truncated, His-tagged form of hTyr (hTyr-DHis) was expressed in HEK 293 cells; His tag; made in house; host or cells: HEK 293 cells; settings: for inhibition of hTyr, result in words: comparison of EC50 values; for EC50: dopa oxidase activity of hTyr, 1 mM L-Dopa, phosphate buffer pH 7.0, 37 °C, values above 3 mM given as >3000; for factor by which inhibitory activity is impaired when thiazole is replaced by another ring: versus the corresponding thiazole compound (W547, W548)
T1 sequence (P14679 19-476 limits assumed): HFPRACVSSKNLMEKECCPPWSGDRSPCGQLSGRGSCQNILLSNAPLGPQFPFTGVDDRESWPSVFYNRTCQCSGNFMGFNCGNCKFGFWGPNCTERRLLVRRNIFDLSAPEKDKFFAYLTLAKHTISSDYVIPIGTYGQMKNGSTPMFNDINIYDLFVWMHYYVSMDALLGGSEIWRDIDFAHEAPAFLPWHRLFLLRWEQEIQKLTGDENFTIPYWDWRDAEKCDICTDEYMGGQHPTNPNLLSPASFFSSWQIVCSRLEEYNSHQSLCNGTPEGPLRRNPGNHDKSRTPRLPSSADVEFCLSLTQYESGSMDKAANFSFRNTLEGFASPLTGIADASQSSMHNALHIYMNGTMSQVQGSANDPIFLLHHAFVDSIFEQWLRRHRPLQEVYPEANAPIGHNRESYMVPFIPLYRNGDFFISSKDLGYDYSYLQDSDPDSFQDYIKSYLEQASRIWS
Description: A truncated, His-tagged form of hTyr (hTyr-DHis) was expressed in HEK 293 cells and purified by metal affinity chromatography on Ni^2+-Sepharose as described by Cordes et al..
The L-Dopa oxidase activity of hTyr was assayed by a modification of the method of Winder and Harris. In this assay, the reaction product, L-dopaquinone, is trapped by MBTH (3-methyl-2-benzothiazoline hydrazone) to yield a stable pink dye that can be quantified at 490 nm. Reaction mixtures in 100 mM phosphate buffer, pH 7.0, were set up in microtiter plates together with appropriate blanks to account for nonenzymatic oxidation of substrate and product. After thermal equilibration at 37 °C for 10 min, the reactions were started by adding enzyme and monitored for 10–20 min at 490 nm. Absorption values were read at 15 s intervals and digitally stored for later analysis. Dose-response curves were obtained by testing various concentrations of each inhibitor in triplicate at a fixed substrate (L-Dopa) concentration of 1 mM.

[2] = target: T1, human tyrosinase (hTyr); settings: in vitro; cited from earlier work

Row | Compound | EC50 [1] | further results
1 | OCCc1ccc(O)cc1O [W785] | 560 ± 90 µM | inhibition of hTyr, result in words [1]: markedly impaired inhibition
2 | CC(=O)Nc1nc(-c2ccc(O)cc2O)cs1 [W547] | 3.2 ± 0.6 µM | –
3 | Cc1sc(NC(=O)C2CCCCC2)nc1-c1ccc(O)cc1O [W625] | > 3000 µM | inhibition of hTyr, result in words [1]: abolished inhibition altogether
4 | CC(=O)Nc1nc(-c2ccc(O)cc2O)c[nH]1 [W633] | 750 ± 60 µM | factor by which inhibitory activity is impaired when thiazole is replaced by another ring [1]: at least 200
5 | OCc1ccc(Nc2nc(-c3ccc(O)cc3O)cs2)cc1 [W693] | 5.7 ± 0.2 µM | –
6 | Oc1ccc(-c2csc(NCCc3ccccc3)n2)c(O)c1 [W496] | 140 ± 6 µM | inhibition of hTyr, result in words [1]: markedly impair inhibition
7 | CCCCCCc1ccc(O)cc1O [W072, 4-hexylresorcinol, reference compound] | 93 ± 21 µM | –
8 | CCCNc1nc(-c2cc(O)cc(O)c2)cs1 [W624] | > 3000 µM | –
9 | Oc1ccc(O)cc1 [hydroquinone] | – | hTyr inhibition compared with thiazolyl resorcinols, in words [2]: clearly inferior to thiazolyl resorcinols
10 | CCCC(=O)Nc1nc(-c2cc(CCC)c(O)cc2O)cs1 [W681] | > 3000 µM | inhibition of hTyr, result in words [1]: abolished inhibition altogether
11 | O=C(Nc1nc(-c2ccc(O)cc2O)cs1)c1ccc(CO)cc1 [W619] | 1.6 ± 0.4 µM | –
12 | CC(C)(C)Nc1nc(-c2ccc(O)cc2O)cs1 [W534] | 25 ± 1 µM | –
13 | CCCC(=O)Nc1nc(-c2ccc(O)cc2O)cs1 [W577] | 3.5 ± 0.5 µM | –
14 | O=C(Nc1nc(-c2ccc(O)cc2O)cs1)c1ccccc1 [W498] | 2.5 ± 0.1 µM | –
15 | Oc1ccc(Nc2nc(-c3ccc(O)cc3O)cs2)cc1 [W542] | 9.8 ± 0.3 µM | –
16 | Nc1nc(-c2ccc(O)cc2O)cs1 [W495, 4-(2-amino-1,3-thiazol-4-yl) resorcinol] | 51 ± 2 µM | –
17 | CCCCCCC(=O)Nc1nc(-c2ccc(O)cc2O)cs1 [W695] | 15 ± 1 µM | –
18 | Oc1ccc(-c2csc(Nc3ccccc3)n2)c(O)c1 [W367] | 10 ± 1 µM | –
19 | CCC(=O)Nc1nc(-c2ccc(O)cc2F)cs1 [W480] | > 3000 µM | –
20 | Oc1cccc(-c2csc(Nc3ncccn3)n2)c1O [W568] | > 3000 µM | –
21 | CCCCCCNc1nc(-c2ccc(O)cc2O)cs1 [W688] | 60 ± 2 µM | –
22 | O=C(Cc1ccc(CO)cc1)Nc1nc(-c2ccc(O)cc2O)cs1 [W696] | 6.5 ± 0.2 µM | –
23 | CC(C)(O)c1ccc(C(=O)Nc2nc(-c3ccc(O)cc3O)cs2)cc1 [W680] | 3.2 ± 0.2 µM | –
24 | O=C(NC1CCCCC1)c1csc(-c2ccc(O)cc2O)n1 [W701] | > 3000 µM | inhibition of hTyr, result in words [1]: abolishes activity

Row | Compound | EC50 [1] | further results
25 | CN(C(=O)C1CCCCC1)c1nc(-c2ccc(O)cc2O)cs1 [W605] | 1400 ± 160 µM | inhibition of hTyr, result in words [1]: strongly
26 | CCCNc1nc(-c2ccc(O)cc2O)cs1 [W538] | 5.6 ± 1.4 µM | –
27 | CC(C)C(=O)Nc1nc(-c2ccc(O)cc2O)cs1 [W630, Thiamidol] | 1.1 ± 0.1 µM | –
28 | CNc1nc(-c2ccc(O)cc2O)cs1 [W366] | 33 ± 1 µM | –
29 | Oc1ccc(-c2csc(Nc3ncccn3)n2)c(O)c1 [W311] | 3.2 ± 0.1 µM | inhibition of hTyr, result in words [1]: mediates efficient inhibition
30 | OC[C@H]1O[C@@H](Oc2ccc(O)cc2)[C@H](O)[C@@H](O)[C@@H]1O [arbutin] | – | hTyr inhibition compared with thiazolyl resorcinols, in words [2]: clearly inferior to thiazolyl resorcinols
31 | CC(C)Nc1nc(-c2ccc(O)cc2O)cs1 [W533] | 6.2 ± 0.2 µM | –
32 | Oc1cccc(O)c1 [W089, resorcinol] | > 3000 µM | –
33 | O=C(Nc1nc(-c2ccc(O)cc2O)cs1)C1CCCCC1 [W548] | 4.6 ± 0.2 µM | –
34 | CC(C)(C)c1ccc(C(=O)Nc2nc(-c3ccc(O)cc3O)cs2)cc1 [W669] | 81 ± 5 µM | inhibition of hTyr, result in words [1]: markedly impair inhibition
35 | Oc1ccc(-c2csc(Nc3ncccn3)n2)cc1 [W452] | 19 ± 1 µM | –
36 | O=C(Nc1cccc(-c2ccc(O)cc2O)c1)C1CCCCC1 [W632] | > 3000 µM | factor by which inhibitory activity is impaired when thiazole is replaced by another ring [1]: at least 200
37 | OCCCCCCNc1nc(-c2ccc(O)cc2O)cs1 [W692] | 6.9 ± 0.2 µM | –
38 | Cc1cc(C)cc(Nc2nc(-c3ccc(O)cc3O)cs2)c1 [W537] | 160 ± 2 µM | inhibition of hTyr, result in words [1]: markedly impair inhibition
39 | Oc1ccccc1-c1csc(Nc2ncccn2)n1 [W539] | > 3000 µM | –
40 | CCCCc1ccc(O)cc1O [W039, 4-butylresorcinol, reference compound] | 21 ± 4 µM | –
41 | CN(c1nc(-c2ccc(O)cc2O)cs1)C1CCCCC1 [W646] | 40 ± 2 µM | inhibition of hTyr, result in words [1]: only moderately reduced inhibitory activity
42 | CC(C)(C)C(=O)Nc1nc(-c2ccc(O)cc2O)cs1 [W687] | 1.4 ± 0.1 µM | –
43 | Oc1ccc(-c2csc(NC3CCCCC3)n2)c(O)c1 [W694] | 16 ± 1 µM | –
44 | O=C(O)c1ccc(Nc2nc(-c3ccc(O)cc3O)cs2)cc1 [W529] | 2.6 ± 0.1 µM | –
45 | CCCCc1ccc(O)c(C)c1O [W639] | 220 ± 10 µM | inhibition of hTyr, result in words [1]: markedly impaired inhibition
46 | O=C(NC1CCCCC1)c1nc(-c2ccc(O)cc2O)cs1 [W607] | 56 ± 3 µM | inhibition of hTyr, result in words [1]: only moderately increases EC50
47 | O=C(O)c1ccc(Nc2nc(-c3ccc(O)cc3O)cs2)cc1O [W570] | 3.5 ± 0.1 µM | –
